Test results: the NIST ThermoML archive (doi:10.1016/j.fluid.2017.03.011)
Numbers after ± are expanded uncertainties.

What was measured:
[1] = an = ratio of the nth substance listed; settings: 101 kPa, Liquid, a2 = 3; for electrical conductivity: Alternating current cell with electrodes; for speed of sound: Sing-around technique in a fixed-path interferometer; for mass density: Vibrating tube method; for viscosity: Falling or rolling sphere viscometry
[2] = refractive index (Na D-line) (dimensionless); an = ratio of the nth substance listed; settings: 101 kPa, Liquid, Standard Abbe refractometry, a2 = 3

CCC[N+](CCC)(CCC)Cc1ccccc1.[Cl-] [benzyltripropylammonium chloride] + CC(O)C(=O)O
Settings | electrical conductivity, [1] [S/m] | mass density, [1] [kg/m3] | refractive index, [2] | speed of sound, [1] [m/s] | viscosity, [1] [mPa·s]
293.15 K | 0.0011 ± 0.0001 | 1120.61 ± 12 | 1.4944 ± 0.0015 | 1658.2 ± 6.5 | –
298.15 K | 0.0018 ± 0.0001 | 1117.05 ± 12 | 1.4926 ± 0.0015 | 1640.8 ± 6.5 | –
303.15 K | 0.003 ± 0.0001 | 1113.49 ± 12 | 1.4908 ± 0.0015 | 1624.7 ± 6.5 | 2276.7 ± 300
308.15 K | 0.0047 ± 0.0002 | 1109.92 ± 12 | 1.4892 ± 0.0015 | 1607.9 ± 6.5 | 1288.3 ± 150
313.15 K | 0.0071 ± 0.0003 | 1106.36 ± 12 | 1.4876 ± 0.0015 | 1592.5 ± 6.5 | 780.5 ± 77
318.15 K | 0.0103 ± 0.0004 | 1102.71 ± 11 | 1.4858 ± 0.0015 | 1577.6 ± 6.5 | 489.2 ± 41
323.15 K | 0.0146 ± 0.0006 | 1099.19 ± 11 | 1.4844 ± 0.0015 | 1563.7 ± 6.5 | 319 ± 22
328.15 K | 0.0201 ± 0.0008 | 1095.66 ± 11 | 1.4824 ± 0.0015 | 1550.1 ± 6.5 | 215.6 ± 13
333.15 K | 0.0267 ± 0.0011 | 1092.1 ± 11 | 1.4811 ± 0.0015 | 1537.3 ± 6.5 | 150.6 ± 7.5
338.15 K | 0.035 ± 0.0014 | 1088.54 ± 11 | 1.4791 ± 0.0015 | 1525.1 ± 6.5 | 108.5 ± 4.6
343.15 K | 0.0443 ± 0.0018 | 1084.99 ± 11 | 1.4778 ± 0.0015 | 1513.6 ± 6.5 | 81.3 ± 3

CCC[N+](CCC)(CCC)Cc1ccccc1.[Cl-] [benzyltripropylammonium chloride] + OCC(O)CO
Settings | electrical conductivity, [1] [S/m] | mass density, [1] [kg/m3] | refractive index, [2] | speed of sound, [1] [m/s] | viscosity, [1] [mPa·s]
293.15 K | 0.0058 ± 0.0002 | 1133.02 ± 0.87 | 1.5051 ± 0.0008 | 1898.3 ± 2 | –
298.15 K | 0.0085 ± 0.0004 | 1129.97 ± 0.87 | 1.5036 ± 0.0008 | 1868.9 ± 2 | –
303.15 K | 0.0117 ± 0.0005 | 1126.92 ± 0.86 | 1.5026 ± 0.0008 | 1844.9 ± 2 | 1890.5 ± 230
308.15 K | 0.016 ± 0.0007 | 1123.81 ± 0.86 | 1.5011 ± 0.0008 | 1824.4 ± 1.9 | 1179.6 ± 130
313.15 K | 0.022 ± 0.0009 | 1120.62 ± 0.85 | 1.4999 ± 0.0008 | 1806.5 ± 1.9 | 779.8 ± 73
318.15 K | 0.0289 ± 0.0012 | 1117.51 ± 0.84 | 1.4982 ± 0.0008 | 1790.1 ± 1.9 | 519.3 ± 41
323.15 K | 0.0374 ± 0.0015 | 1114.45 ± 0.84 | 1.4966 ± 0.0008 | 1774.7 ± 1.9 | 359.2 ± 24
328.15 K | 0.048 ± 0.0019 | 1111.39 ± 0.83 | 1.4953 ± 0.0008 | 1760.1 ± 1.9 | 251.6 ± 14
333.15 K | 0.0596 ± 0.0024 | 1108.32 ± 0.83 | 1.4936 ± 0.0008 | 1745.9 ± 1.9 | 180.1 ± 8
338.15 K | 0.0741 ± 0.003 | 1105.24 ± 0.82 | 1.4922 ± 0.0008 | 1732.2 ± 1.9 | 131.4 ± 4.5
343.15 K | 0.0894 ± 0.0036 | 1102.17 ± 0.82 | 1.4908 ± 0.0008 | 1719.2 ± 1.9 | 97 ± 2.4

CCC[N+](CCC)(CCC)Cc1ccccc1.[Cl-] [benzyltripropylammonium chloride] + OCCO
Settings | electrical conductivity, [1] [S/m] | mass density, [1] [kg/m3] | refractive index, [2] | speed of sound, [1] [m/s] | viscosity, [1] [mPa·s]
293.15 K | 0.0734 ± 0.003 | 1063.63 ± 0.97 | 1.4981 ± 0.0008 | 1762.4 ± 2.2 | 327.9 ± 21
298.15 K | 0.0883 ± 0.0036 | 1060.58 ± 0.96 | 1.4965 ± 0.0008 | 1746.5 ± 2.2 | 229.2 ± 12
303.15 K | 0.105 ± 0.0042 | 1057.52 ± 0.96 | 1.4952 ± 0.0008 | 1731 ± 2.2 | 164.6 ± 6.9
308.15 K | 0.125 ± 0.005 | 1054.44 ± 0.95 | 1.4939 ± 0.0008 | 1715.9 ± 2.2 | 121 ± 3.8
313.15 K | 0.146 ± 0.0059 | 1051.35 ± 0.94 | 1.4924 ± 0.0008 | 1701.1 ± 2.2 | 90.8 ± 2.1
318.15 K | 0.17 ± 0.0068 | 1048.27 ± 0.94 | 1.4911 ± 0.0008 | 1686.4 ± 2.2 | 70.6 ± 1.1
323.15 K | 0.2 ± 0.008 | 1045.19 ± 0.93 | 1.4895 ± 0.0008 | 1671.9 ± 2.2 | 54.4 ± 0.6
328.15 K | 0.228 ± 0.0091 | 1042.11 ± 0.92 | 1.4879 ± 0.0008 | 1657.5 ± 2.1 | 42.1 ± 0.6
333.15 K | 0.26 ± 0.01 | 1039.03 ± 0.92 | 1.4864 ± 0.0008 | 1643.3 ± 2.1 | 33.5 ± 0.4
338.15 K | 0.292 ± 0.012 | 1035.95 ± 0.91 | 1.4849 ± 0.0008 | 1629.2 ± 2.1 | 27 ± 0.4
343.15 K | 0.328 ± 0.013 | 1032.88 ± 0.9 | 1.4831 ± 0.0008 | 1615.7 ± 2.1 | 22.2 ± 0.3

CCC[N+](CCC)(CCC)Cc1ccccc1.[Cl-] [benzyltripropylammonium chloride] + Oc1ccccc1
Settings | electrical conductivity, [1] [S/m] | mass density, [1] [kg/m3] | refractive index, [2] | speed of sound, [1] [m/s] | viscosity, [1] [mPa·s]
293.15 K | 0.0213 ± 0.0009 | 1060.26 ± 0.96 | 1.5486 ± 0.0008 | 1699.7 ± 2.2 | 638.4 ± 55
298.15 K | 0.0295 ± 0.0012 | 1056.98 ± 0.95 | 1.5471 ± 0.0008 | 1679.8 ± 2.2 | 381.5 ± 27
303.15 K | 0.0397 ± 0.0016 | 1053.73 ± 0.95 | 1.5452 ± 0.0008 | 1661.7 ± 2.1 | 237.1 ± 13
308.15 K | 0.0523 ± 0.0021 | 1050.47 ± 0.94 | 1.5436 ± 0.0008 | 1644.5 ± 2.1 | 156.7 ± 6.3
313.15 K | 0.0669 ± 0.0027 | 1047.19 ± 0.93 | 1.542 ± 0.0008 | 1628 ± 2.1 | 107 ± 3
318.15 K | 0.0838 ± 0.0034 | 1043.91 ± 0.93 | 1.5403 ± 0.0008 | 1611.9 ± 2.1 | 76.8 ± 1.4
323.15 K | 0.0999 ± 0.004 | 1040.64 ± 0.92 | 1.5386 ± 0.0008 | 1596.2 ± 2.1 | 57.6 ± 0.7
328.15 K | 0.118 ± 0.0047 | 1037.37 ± 0.91 | 1.5369 ± 0.0008 | 1580.7 ± 2.1 | 43.1 ± 0.6
333.15 K | 0.138 ± 0.0055 | 1034.12 ± 0.91 | 1.5352 ± 0.0008 | 1565.5 ± 2.1 | 32.6 ± 0.4
338.15 K | 0.162 ± 0.0065 | 1030.87 ± 0.9 | 1.5334 ± 0.0008 | 1550.5 ± 2.1 | 25.8 ± 0.3
343.15 K | 0.183 ± 0.0074 | 1027.64 ± 0.89 | 1.5317 ± 0.0008 | 1536.1 ± 2.1 | 20.4 ± 0.3
